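48-hour exposure; five concentrations; linearly interpolated endpoints. Definition used: TGI = concentration required for complete inhibition of growth.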
Experiments:
Experiment in all cases: NCI-60 cell line screen, 48 h
OVCAR-8 ovarian = test system: OVCAR-8 ovarian
NCI-H23 lung = test system: NCI-H23 lung
EKVX NSCLC = test system: EKVX NSCLC
UO-31 renal = test system: UO-31 renal
DU-145 prostate = test system: DU-145 prostate
MALME-3M melanoma = test system: MALME-3M melanoma
HS 578T breast = test system: HS 578T breast
A498 renal = test system: A498 renal
SNB-19 CNS = test system: SNB-19 CNS
MCF7 breast = test system: MCF7 breast
KM12 colon = test system: KM12 colon
SW-620 colon = test system: SW-620 colon
CAKI-1 renal = test system: CAKI-1 renal
OVCAR-4 ovarian = test system: OVCAR-4 ovarian
NCI-H522 lung = test system: NCI-H522 lung
A549 NSCLC = test system: A549 NSCLC
MOLT-4 leukemia = test system: MOLT-4 leukemia
HL-60(TB) leukemia = test system: HL-60(TB) leukemia
SF-295 CNS = test system: SF-295 CNS
HCC-2998 colon = test system: HCC-2998 colon
M14 melanoma = test system: M14 melanoma
NCI/ADR-RES ovarian = test system: NCI/ADR-RES ovarian
U251 CNS = test system: U251 CNS
RPMI-8226 leukemia = test system: RPMI-8226 leukemia
SF-539 CNS = test system: SF-539 CNS
K-562 leukemia = test system: K-562 leukemia
T-47D breast = test system: T-47D breast
HOP-92 NSCLC = test system: HOP-92 NSCLC
SK-MEL-2 melanoma = test system: SK-MEL-2 melanoma
HCT-116 colon = test system: HCT-116 colon
UACC-62 melanoma = test system: UACC-62 melanoma
HT29 colon = test system: HT29 colon
RXF 393 renal = test system: RXF 393 renal
NCI-H460 lung = test system: NCI-H460 lung
UACC-257 melanoma = test system: UACC-257 melanoma
OVCAR-3 ovarian = test system: OVCAR-3 ovarian
OVCAR-5 ovarian = test system: OVCAR-5 ovarian
SN12C renal = test system: SN12C renal
MDA-MB-231 breast = test system: MDA-MB-231 breast
SR leukemia = test system: SR leukemia
CCRF-CEM leukemia = test system: CCRF-CEM leukemia
IGROV1 ovarian = test system: IGROV1 ovarian
SK-MEL-5 melanoma = test system: SK-MEL-5 melanoma
LOX IMVI melanoma = test system: LOX IMVI melanoma
HOP-62 NSCLC = test system: HOP-62 NSCLC
786-0 renal = test system: 786-0 renal
SK-OV-3 ovarian = test system: SK-OV-3 ovarian
COLO 205 colon = test system: COLO 205 colon
PC-3 prostate = test system: PC-3 prostate
ACHN renal = test system: ACHN renal
BT-549 breast = test system: BT-549 breast
MDA-MB-435 = test system: MDA-MB-435
MDA-N = test system: MDA-N
TK-10 renal = test system: TK-10 renal
SNB-75 CNS = test system: SNB-75 CNS
NCI-H226 lung = test system: NCI-H226 lung
HCT-15 colon = test system: HCT-15 colon
SK-MEL-28 melanoma = test system: SK-MEL-28 melanoma
SF-268 CNS = test system: SF-268 CNS

Work on `O=C(NCCNCCNCCNC(=O)c1cc(-c2ccccc2)nc2ccccc12)c1cc(-c2ccccc2)nc2ccccc12` yielded a TGI (OVCAR-8 ovarian) of 3.85 µM, a TGI (NCI-H23 lung) of 13.1 µM and a TGI (EKVX NSCLC) of 18 µM. It also gave a TGI (UO-31 renal) of 18 µM, a TGI (DU-145 prostate) of 11.8 µM and a TGI (MALME-3M melanoma) of 3.31 µM. It also gave a TGI (HS 578T breast) of 4.96 µM, a TGI (A498 renal) of 9.68 µM and a TGI (SNB-19 CNS) of 8.93 µM. It also gave a TGI (MCF7 breast) of 3.79 µM, a TGI (KM12 colon) of 5.54 µM and a TGI (SW-620 colon) of 3.31 µM. It also gave a TGI (CAKI-1 renal) of 29.4 µM, a TGI (OVCAR-4 ovarian) of 13.8 µM and a TGI (NCI-H522 lung) of 3.13 µM. The TGI (A549 NSCLC) was 18.6 µM, the TGI (MOLT-4 leukemia) was 4.22 µM and the TGI (HL-60(TB) leukemia) was 3.85 µM. It also gave a TGI (SF-295 CNS) of 3.09 µM, a TGI (HCC-2998 colon) of 3.1 µM and a TGI (M14 melanoma) of 3.39 µM. It also gave a TGI (NCI/ADR-RES ovarian) of 29.3 µM, a TGI (U251 CNS) of 3.3 µM and a TGI (RPMI-8226 leukemia) of 6.51 µM. It also gave a TGI (SF-539 CNS) of 3.85 µM, a TGI (K-562 leukemia) of 4.12 µM and a TGI (T-47D breast) of 7.66 µM. It also gave a TGI (HOP-92 NSCLC) of 7.81 µM, a TGI (SK-MEL-2 melanoma) of 3.08 µM and a TGI (HCT-116 colon) of 3.39 µM. For the same molecule, the TGI (UACC-62 melanoma) was 3.97 µM, the TGI (HT29 colon) was 3.14 µM and the TGI (RXF 393 renal) was 4.34 µM. For the same molecule, the TGI (NCI-H460 lung) was 3.4 µM, the TGI (UACC-257 melanoma) was 3.17 µM and the TGI (OVCAR-3 ovarian) was 8.11 µM. For the same molecule, the TGI (OVCAR-5 ovarian) was 4.94 µM, the TGI (SN12C renal) was 11.2 µM and the TGI (MDA-MB-231 breast) was 7.57 µM. For the same molecule, the TGI (SR leukemia) was 5.01 µM, the TGI (CCRF-CEM leukemia) was greater than 20.5 µM and the TGI (IGROV1 ovarian) was 7.52 µM. The TGI (SK-MEL-5 melanoma) was 2.88 µM, the TGI (LOX IMVI melanoma) was 3.03 µM and the TGI (HOP-62 NSCLC) was 5.96 µM. It also gave a TGI (786-0 renal) of 3.08 µM, a TGI (SK-OV-3 ovarian) of 11.1 µM and a TGI (COLO 205 colon) of 4 µM. It also gave a TGI (PC-3 prostate) of 14.1 µM, a TGI (ACHN renal) of 4.91 µM and a TGI (BT-549 breast) of 21.9 µM. The TGI (MDA-MB-435) was 3.23 µM, the TGI (MDA-N) was 2.97 µM and the TGI (TK-10 renal) was 11.4 µM. For the same molecule, the TGI (SNB-75 CNS) was 3.44 µM, the TGI (NCI-H226 lung) was 7.38 µM and the TGI (HCT-15 colon) was 18.9 µM. It also gave a TGI (SK-MEL-28 melanoma) of 3.08 µM and a TGI (SF-268 CNS) of 10.1 µM.

`COC(=O)[C@]12CCC(C)(C)C[C@H]1C1=CC[C@@H]3[C@@]4(C)CC[C@H](OC5OC(CO)C(O)C(O)C5OC5OC(CO)C(O)C(O)C5O)C(C)(C)[C@@H]4CC[C@@]3(C)[C@]1(C)CC2` (some centres not stated) showed a TGI (OVCAR-8 ovarian) of 34 µM, a TGI (NCI-H23 lung) of 19.6 µM and a TGI (EKVX NSCLC) of 26 µM. For the same molecule, the TGI (UO-31 renal) was 10.9 µM, the TGI (DU-145 prostate) was 24.5 µM and the TGI (MALME-3M melanoma) was 25.2 µM. For the same molecule, the TGI (HS 578T breast) was 56.8 µM, the TGI (A498 renal) was 23.5 µM and the TGI (SNB-19 CNS) was 29.6 µM. For the same molecule, the TGI (MCF7 breast) was 24.4 µM, the TGI (KM12 colon) was 26.9 µM and the TGI (SW-620 colon) was 27.7 µM. For the same molecule, the TGI (CAKI-1 renal) was 21 µM, the TGI (OVCAR-4 ovarian) was 15.6 µM and the TGI (NCI-H522 lung) was 8.71 µM. For the same molecule, the TGI (A549 NSCLC) was 22.2 µM, the TGI (MOLT-4 leukemia) was 40.8 µM and the TGI (HL-60(TB) leukemia) was 19.4 µM. It also gave a TGI (SF-295 CNS) of 27.2 µM, a TGI (HCC-2998 colon) of 37.9 µM and a TGI (M14 melanoma) of 13.9 µM. It also gave a TGI (NCI/ADR-RES ovarian) of 29.1 µM, a TGI (U251 CNS) of 26.3 µM and a TGI (RPMI-8226 leukemia) of 48.3 µM. It also gave a TGI (K-562 leukemia) of 25.4 µM, a TGI (T-47D breast) of 36.3 µM and a TGI (HOP-92 NSCLC) of 13 µM. It also gave a TGI (SK-MEL-2 melanoma) of 23.9 µM, a TGI (HCT-116 colon) of 18.7 µM and a TGI (UACC-62 melanoma) of 23.9 µM. It also gave a TGI (HT29 colon) of 22.1 µM, a TGI (RXF 393 renal) of 19.7 µM and a TGI (NCI-H460 lung) of 30.2 µM. It also gave a TGI (UACC-257 melanoma) of 20.3 µM, a TGI (OVCAR-3 ovarian) of 22.4 µM and a TGI (OVCAR-5 ovarian) of 30.5 µM. For the same molecule, the TGI (SN12C renal) was 15.9 µM, the TGI (MDA-MB-231 breast) was 7.2 µM and the TGI (SR leukemia) was 26.8 µM. The TGI (CCRF-CEM leukemia) was 33.8 µM, the TGI (IGROV1 ovarian) was 28.7 µM and the TGI (SK-MEL-5 melanoma) was 29.3 µM. The TGI (LOX IMVI melanoma) was 20.2 µM, the TGI (HOP-62 NSCLC) was 25.3 µM and the TGI (786-0 renal) was 23.8 µM. For the same molecule, the TGI (SK-OV-3 ovarian) was 36.1 µM, the TGI (COLO 205 colon) was 10.4 µM and the TGI (PC-3 prostate) was 15.3 µM. The TGI (ACHN renal) was 20.5 µM, the TGI (BT-549 breast) was 35.8 µM and the TGI (MDA-MB-435) was 20.8 µM. It also gave a TGI (MDA-N) of 18.4 µM, a TGI (SNB-75 CNS) of 26.4 µM and a TGI (NCI-H226 lung) of 14.5 µM. For the same molecule, the TGI (HCT-15 colon) was 25 µM, the TGI (SK-MEL-28 melanoma) was 12.3 µM and the TGI (SF-268 CNS) was 31.2 µM.

With `CC(C)(C)OC(=O)NC(Cc1ccc(OCc2ccccc2)cn1)C(=O)NCc1ccccc1` (configuration not stated) the TGI (OVCAR-8 ovarian) was 82.1 µM, the TGI (NCI-H23 lung) was 47.3 µM and the TGI (EKVX NSCLC) was 99.3 µM. For the same molecule, the TGI (UO-31 renal) was 82.9 µM, the TGI (DU-145 prostate) was greater than 100 µM and the TGI (MALME-3M melanoma) was 65.7 µM. For the same molecule, the TGI (HS 578T breast) was greater than 100 µM, the TGI (A498 renal) was greater than 100 µM and the TGI (SNB-19 CNS) was greater than 100 µM. For the same molecule, the TGI (MCF7 breast) was 97.9 µM, the TGI (KM12 colon) was 97.8 µM and the TGI (SW-620 colon) was greater than 100 µM. The TGI (CAKI-1 renal) was greater than 100 µM, the TGI (NCI-H522 lung) was 47.1 µM and the TGI (A549 NSCLC) was greater than 100 µM. For the same molecule, the TGI (MOLT-4 leukemia) was 42 µM, the TGI (HL-60(TB) leukemia) was 33.7 µM and the TGI (SF-295 CNS) was 51.6 µM. For the same molecule, the TGI (HCC-2998 colon) was greater than 100 µM, the TGI (M14 melanoma) was 47.8 µM and the TGI (NCI/ADR-RES ovarian) was 48.7 µM. The TGI (U251 CNS) was greater than 100 µM, the TGI (RPMI-8226 leukemia) was 44.9 µM and the TGI (K-562 leukemia) was greater than 100 µM. The TGI (T-47D breast) was 56.5 µM, the TGI (HOP-92 NSCLC) was 60.4 µM and the TGI (SK-MEL-2 melanoma) was 35.7 µM. The TGI (HCT-116 colon) was 83.6 µM, the TGI (UACC-62 melanoma) was 32.5 µM and the TGI (HT29 colon) was greater than 100 µM. It also gave a TGI (RXF 393 renal) greater than 100 µM, a TGI (NCI-H460 lung) of 69.7 µM and a TGI (UACC-257 melanoma) of 34.5 µM. It also gave a TGI (OVCAR-3 ovarian) of 43.2 µM, a TGI (OVCAR-5 ovarian) greater than 100 µM and a TGI (SN12C renal) of 64.6 µM. For the same molecule, the TGI (MDA-MB-231 breast) was 75.1 µM, the TGI (SR leukemia) was 30.5 µM and the TGI (CCRF-CEM leukemia) was 43.5 µM. For the same molecule, the TGI (IGROV1 ovarian) was greater than 100 µM, the TGI (SK-MEL-5 melanoma) was 26 µM and the TGI (LOX IMVI melanoma) was 39.4 µM. For the same molecule, the TGI (HOP-62 NSCLC) was 56.1 µM, the TGI (786-0 renal) was greater than 100 µM and the TGI (SK-OV-3 ovarian) was 51.6 µM. It also gave a TGI (COLO 205 colon) of 30.8 µM, a TGI (PC-3 prostate) of 53 µM and a TGI (ACHN renal) greater than 100 µM. For the same molecule, the TGI (BT-549 breast) was 48.6 µM, the TGI (MDA-MB-435) was 48.1 µM and the TGI (MDA-N) was 43.8 µM. The TGI (TK-10 renal) was greater than 100 µM, the TGI (SNB-75 CNS) was 78.5 µM and the TGI (HCT-15 colon) was 72.8 µM. For the same molecule, the TGI (SK-MEL-28 melanoma) was greater than 100 µM and the TGI (SF-268 CNS) was 75 µM.
